Source: patent publication US8273754B2, “Substituted 1H-pyrazolo[3,4-D]pyrimidine-6-amine compounds” (ArQule, Inc., priority 2008, dated 2012)
Read-outs that look alike come from different tables or passages of the source.

System: cancer cells
Test: MTS cell growth inhibition assay (72 hours)
Assay type: cell-based
How it was run: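 Growth inhibition read as formazan absorbance at 492 nm after 4 h MTS/PMS, following 72 h compound exposure at 37 °C in 1% FBS DMEM (cells pre-seeded 18 h). IC50 = 50% absorbance reduction; inhibition graded in bands.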

[1] = Homo sapiens, DLD-1, 72 h, DLD-1 cells, read-out: DLD-1 MTS 72 hr at 10 μM
[2] = Homo sapiens, KATO III, 72 h, KATO III cells, read-out: KATO III MTS 72 hr at 10 μM
[3] = Homo sapiens, MDA-MB-231, 72 h, MDA-MB-231 cells, read-out: MDA-MB-231 MTS 72 hr at 10 μM
[4] = Homo sapiens, NCI-H1299, 72 h, NCI-H1299 cells, read-out: NCI-H1299 MTS 72 hr at 10 μM
[5] = PaCa-2, 72 h, PACA-2 cells, read-out: PACA-2 MTS 72 hr at 10 μM

SMILES	inhibition at 10 µM [1]	inhibition at 10 µM [2]	inhibition at 10 µM [3]	inhibition at 10 µM [4]	inhibition at 10 µM [5]
Nc1nc(NC2Cc3ccccc3N(S(=O)(=O)c3ccc(NC(=O)Nc4ccccc4Cl)cc3)C2)c2cn[nH]c2n1 (centres unmarked) [Compound 190, 1-[4-({3-[(6-amino-1H-pyrazolo[3,4-d]pyrimidin-4-yl)amino]-3,4-dihydroquinolin-1(2H)-yl}sulfonyl)phenyl]-3-(2-chlorophenyl)urea]	< 50%	< 50%	< 50%	< 50%	< 50%
Nc1nc(NC2Cc3ccccc3N(S(=O)(=O)c3ccc(F)c(F)c3)C2)c2cn[nH]c2n1 (centres unmarked) [Compound 46, N4-(1-(3,4-difluorophenylsulfonyl)-1,2,3,4-tetrahydroquinolin-3-yl)-1H-pyrazolo[3,4-d]pyrimidine-4,6-diamine]	< 50%	< 50%	< 50%	< 50%	< 50%
Nc1nc(NC2Cc3ccccc3N(S(=O)(=O)c3cccc(Cl)c3Cl)C2)c2cn[nH]c2n1 (centres unmarked) [Compound 57, N4-(1-(2,3-dichlorophenylsulfonyl)-1,2,3,4-tetrahydroquinolin-3-yl)-1H-pyrazolo[3,4-d]pyrimidine-4,6-diamine]	< 50%	< 50%	< 50%	< 50%	< 50%
Nc1nc(NC2Cc3ccccc3N(C(=O)c3ccc(C(F)(F)F)c(F)c3)C2)c2cn[nH]c2n1 (centres unmarked) [Compound 100, (3-(6-amino-1H-pyrazolo[3,4-d]pyrimidin-4-ylamino)-3,4-dihydroquinolin-1(2H)-yl)(3-fluoro-4-(trifluoromethyl)phenyl)methanone]	< 50%	< 50%	< 50%	< 50%	< 50%
CS(=O)(=O)N1CC(Nc2nc(N)nc3[nH]ncc23)Cc2ccccc21 (centres unmarked) [Compound 29, N4-(1-(methylsulfonyl)-1,2,3,4-tetrahydroquinolin-3-yl)-1H-pyrazolo[3,4-d]pyrimidine-4,6-diamine]	< 50%	< 50%	< 50%	< 50%	< 50%
Nc1nc(NC2Cc3ccccc3N(S(=O)(=O)c3cccc(NC(=O)Nc4ccc5ccccc5c4)c3)C2)c2cn[nH]c2n1 (centres unmarked) [Compound 212, 1-[3-({3-[(6-amino-1H-pyrazolo[3,4-d]pyrimidin-4-yl)amino]-3,4-dihydroquinolin-1(2H)-yl}sulfonyl)phenyl]-3-(2-naphthyl)urea]	> 79%	> 79%	> 79%	> 79%	> 79%
Nc1nc(NC2Cc3ccccc3N(S(=O)(=O)c3cccc(NC(=O)Nc4ccc(C(F)(F)F)cc4)c3)C2)c2cn[nH]c2n1 (centres unmarked) [Compound 209, 1-[3-({3-[(6-amino-1H-pyrazolo[3,4-d]pyrimidin-4-yl)amino]-3,4-dihydroquinolin-1(2H)-yl}sulfonyl)phenyl]-3-[4-(trifluoromethyl)phenyl]urea]	> 79%	> 79%	> 79%	> 79%	> 79%
Nc1nc(NC2Cc3ccccc3N(S(=O)(=O)c3ccc4c(c3)OCCO4)C2)c2cn[nH]c2n1 (centres unmarked) [Compound 76, N4-(1-(2,3-dihydrobenzo[b][1,4]dioxin-6-ylsulfonyl)-1,2,3,4-tetrahydroquinolin-3-yl)-1H-pyrazolo[3,4-d]pyrimidine-4,6-diamine]	< 50%	< 50%	< 50%	< 50%	50 to 79%
Cc1ccc(CN2CC(Nc3nc(N)nc4[nH]ncc34)Cc3ccccc32)cc1C (centres unmarked) [Compound 130, N4-[1-(3,4-dimethylbenzyl)-1,2,3,4-tetrahydroquinolin-3-yl]-1H-pyrazolo[3,4-d]pyrimidine-4,6-diamine]	< 50%	< 50%	< 50%	< 50%	< 50%
Nc1nc(NC2Cc3ccccc3N(C(=O)NCc3ccc(F)cc3)C2)c2cn[nH]c2n1 (centres unmarked) [Compound 115, 3-(6-amino-1H-pyrazolo[3,4-d]pyrimidin-4-ylamino)-N-(4-fluorobenzyl)-3,4-dihydroquinoline-1(2H)-carboxamide]	< 50%	< 50%	< 50%	< 50%	< 50%
Cc1ccc(CN2CC(Nc3nc(N)nc4[nH]ncc34)Cc3ccccc32)c(C)c1 (centres unmarked) [Compound 134, N4-[1-(2,4-dimethylbenzyl)-1,2,3,4-tetrahydroquinolin-3-yl]-1H-pyrazolo[3,4-d]pyrimidine-4,6-diamine]	> 79%	> 79%	< 50%	< 50%	50 to 79%
Nc1nc(NC2Cc3ccccc3N(Cc3ccc(-c4ccccn4)cc3)C2)c2cn[nH]c2n1 (centres unmarked) [Compound 143, N4-[1-(4-pyridin-2-ylbenzyl)-1,2,3,4-tetrahydroquinolin-3-yl]-1H-pyrazolo[3,4-d]pyrimidine-4,6-diamine]	< 50%	< 50%	< 50%	< 50%	< 50%
Nc1nc(NC2Cc3ccccc3N(Cc3c(F)cccc3Cl)C2)c2cn[nH]c2n1 (centres unmarked) [Compound 140, N4-[1-(2-chloro-6-fluorobenzyl)-1,2,3,4-tetrahydroquinolin-3-yl]-1H-pyrazolo[3,4-d]pyrimidine-4,6-diamine]	> 79%	> 79%	> 79%	50 to 79%	> 79%
Nc1nc(NC2Cc3ccccc3N(Cc3cccc(Oc4ccc(Cl)cc4)c3)C2)c2cn[nH]c2n1 (centres unmarked) [Compound 164, N4-{1-[3-(4-chlorophenoxy)benzyl]-1,2,3,4-tetrahydroquinolin-3-yl}-1H-pyrazolo[3,4-d]pyrimidine-4,6-diamine]	50 to 79%	50 to 79%	< 50%	< 50%	< 50%
Nc1nc(NC2Cc3ccccc3N(C(=O)NCCc3cccc(Cl)c3)C2)c2cn[nH]c2n1 (centres unmarked) [Compound 106, 3-(6-amino-1H-pyrazolo[3,4-d]pyrimidin-4-ylamino)-N-(3-chlorophenethyl)-3,4-dihydroquinoline-1(2H)-carboxamide]	< 50%	< 50%	< 50%	< 50%	< 50%
Nc1nc(NC2Cc3ccccc3N(S(=O)(=O)c3ccc(OC(F)(F)F)cc3)C2)c2cn[nH]c2n1 (centres unmarked) [Compound 68, N4-(1-(4-(trifluoromethoxy)phenylsulfonyl)-1,2,3,4-tetrahydroquinolin-3-yl)-1H-pyrazolo[3,4-d]pyrimidine-4,6-diamine]	< 50%	< 50%	< 50%	< 50%	< 50%
Nc1nc(NC2Cc3ccccc3N(S(=O)(=O)Cc3ccccc3)C2)c2cn[nH]c2n1 (centres unmarked) [Compound 21, N4-(1-(benzylsulfonyl)-1,2,3,4-tetrahydroquinolin-3-yl)-1H-pyrazolo[3,4-d]pyrimidine-4,6-diamine]	> 79%	> 79%	50 to 79%	< 50%	> 79%
CCOC(=O)c1ccc(NC(=O)N2CC(Nc3nc(N)nc4[nH]ncc34)Cc3ccccc32)cc1 (centres unmarked) [Compound 114, ethyl 4-(3-(6-amino-1H-pyrazolo[3,4-d]pyrimidin-4-ylamino)-1,2,3,4-tetrahydroquinoline-1-carboxamido)benzoate]	> 79%	< 50%	< 50%	< 50%	< 50%
Nc1nc(NC2Cc3ccccc3N(C(=O)Cc3cccc4ccccc34)C2)c2cn[nH]c2n1 (centres unmarked) [Compound 98, 1-(3-(6-amino-1H-pyrazolo[3,4-d]pyrimidin-4-ylamino)-3,4-dihydroquinolin-1(2H)-yl)-2-(naphthalen-1-yl)ethanone]	< 50%	< 50%	< 50%	< 50%	< 50%
Nc1nc(NC2Cc3ccccc3N(S(=O)(=O)c3ccc(NC(=O)Nc4ccc5c(c4)Cc4ccccc4-5)cc3)C2)c2cn[nH]c2n1 (centres unmarked) [Compound 198, 1-[4-({3-[(6-amino-1H-pyrazolo[3,4-d]pyrimidin-4-yl)amino]-3,4-dihydroquinolin-1(2H)-yl}sulfonyl)phenyl]-3-(9H-fluoren-2-yl)urea]	> 79%	> 79%	< 50%	> 79%	< 50%
COc1ccc(-c2ccc(S(=O)(=O)N3CC(Nc4nc(N)nc5[nH]ncc45)Cc4ccccc43)cc2)cc1 (centres unmarked) [Compound 60, N4-(1-(4′-methoxybiphenyl-4-ylsulfonyl)-1,2,3,4-tetrahydroquinolin-3-yl)-1H-pyrazolo[3,4-d]pyrimidine-4,6-diamine]	< 50%	< 50%	< 50%	< 50%	< 50%
Nc1nc(NC2CCN(S(=O)(=O)c3ccc(OC(F)(F)F)cc3)c3ccccc3C2)c2cn[nH]c2n1 (centres unmarked) [Compound 185, N4-(1-{[4-(trifluoromethoxy)phenyl]sulfonyl}-2,3,4,5-tetrahydro-1H-1-benzazepin-4-yl)-1H-pyrazolo[3,4-d]pyrimidine-4,6-diamine]	< 50%	< 50%	< 50%	< 50%	< 50%
